Article PMC6504873, “High-throughput screening of the Plasmodium falciparum cGMP-dependent protein kinase identified a thiazole scaffold which kills erythrocytic and sexual stage parasites” (Scientific Reports, 2019)

Experiments:
[1] = molecular target: T1, WT PfPKG (Plasmodium falciparum, UniProt Q8I719); assay: Kinase Glo enzymatic assay, recombinant WT PfPKG; assay type: biochemical, P. falciparum
T1 construct: recombinant full length wild type (WT) PfPKG; His6 (N); host or cells: E. coli BL21
Procedure: To identify new PKG inhibitor scaffolds, the 1.7 million GlaxoSmithKline Full Diversity collection was tested at a single final concentration of 10 μM against recombinant full length wild type (WT) PfPKG using a Kinase Glo-based assay (Promega). The results gave a robust Z′ mean value of 0.85. At an average statistical cut-off of 30%, 20,174 primary hits were identified with an overall hit rate of 1%. Fresh samples of these primary hits were tested in duplicate against WT PfPKG and also against human PKGIα (HuPKGIα) (Supplementary Fig. 1) at a final concentration of 10 μM (confirmation step).
Protein production was outsourced to the Division of Signal Transduction Therapy, University of Dundee. Briefly, the pTRChis expression vectors (Invitrogen) containing an N-terminally His6-tagged PfPKG wildtype and T618Q were used to transform BL21 cells (protocol adapted from[23]). The cells were grown at 37 °C until the OD600 was 0.4–0.6 then the temperature was reduced to 15 °C and the cells were induced with 250 µM IPTG and grown for a further 16–18 hours before harvesting. The His6-PfPKG was purified on Cobalt agarose followed by gel filtration and the protein was dialysed into 25 mM Hepes pH 7.5, 0.1 mM EGTA, 150 mM NaCl, 50% glycerol and 2 mM DTT.
Initial optimization of the PKG assay was performed manually in 384-well plates and analysed with GraFit 7. The buffer for all assays was 25 mM HEPES pH 7.3 (GIBCO), 10 mM MgCl2 (Sigma), 2 mM DTT (Sigma), 0.01 mM cGMP (Sigma), 0.1 mg/ml BSA (Ambion). Enzymatic activity was tested using a luminescence-based kit (Promega KinaseGlo). Addition of the first reagent depletes the unused ATP and addition of the second reagent converts ADP (product of the kinase reaction) to ATP, which is then measured through a luciferin/luciferase reaction. The amount of luminescence is directly proportional to ATP turnover by the kinase. The kit was chosen because it can be miniaturized to small volumes (i.e. 4 µl) in 1536-well plates, for use in HTS.
We used PKA peptide substrate (SCP0212, Sigma-Aldrich) for WT and TQ PfPKG, dissolved in milliQ water at a final concentration of 5 mM, and Long S6 peptide substrate (produced at the University of Dundee, sequence […]) for HuPKGIα, dissolved in water at a final concentration of 30 mM.
We calculated the Michaelis-Menten (Km) constant for ATP and peptide substrate (PKA or Long S6) for all enzymes using GraphPad Prism (Supplementary Figs 2 and 3 and Supplementary Table 3). In order to identify different types of PKG inhibitors, including ATP competitive or non-competitive inhibitors, as well as inhibitors that bind to the peptide substrate pocket, we performed all assays using ATP and peptide substrate at a concentration equal to the Km. We also determined enzyme activity by calculating ATP turnover (Kcat) over the Km (Supplementary Table 3). The Kcat was calculated as (Vmax*slope)/[E] where Vmax is the maximum velocity and [E] is the concentration of the enzyme.
The plates containing the compounds were prepared at GSK in Upper Providence or Stevenage. Compounds were tested at a single final concentration of 10 µM or in a dose response with a range of concentrations starting from 100 μM to 1.6 nM (1 in 3 serial dilutions). Compounds were dispensed in the plates at the required concentration in a 40 nl volume. All plates (1536-well white Greiner) contained 40 nl of DMSO in lanes 11 and 12 (control 1, 100% enzyme activity) and were empty in lanes 35 and 36 (control 2, 0% enzyme activity). The plates were removed from −20 °C 1 hour before starting the assay. Using a Multidrop Combi dispenser (Thermo Scientific), 2 µl of the buffer containing ATP and the substrate were added to all wells then 2 µl of buffer only were added to column 35 and 36. Finally 2 µl of buffer containing the enzyme were dispensed in all the plate wells except for lanes 35 and 36. […]

[2] = PFI; assay type: physicochemical
Procedure: Dose response assays were performed in duplicate on WT PfPKG, HuPKGIα and a mock assay performed in the absence of enzyme (the counterscreen). Comparison of the PfPKG and HuPKGIα IC50 values gave information on selectivity and the counterscreen identified luminescent false positive compounds (see Materials and Methods). Cytotoxicity assays were also performed using a human hepatoma cell line (HepG2)[30]. […] This set of compounds was clustered by similarity using a complete-linkage algorithm and a threshold of 0.55[31]. A total of 79 clusters and 54 singletons were obtained.

[3] = molecular target: AuroraB (Homo sapiens, UniProt Q96GD4); assay: Preliminary safety test on human AuroraB kinase; assay type: biochemical
Procedure: (§1) We explored the binding mode by also testing compounds on the gatekeeper mutant enzyme TQ PfPKG. […] A preliminary safety test was performed on human AuroraB and LCK kinases which often underpin toxicity issues. […] Further assays for compound characterization included determination of solubility and cytotoxicity (HepG2 inhibition).

[4] = molecular target: LCK (Homo sapiens, UniProt P06239); assay: Preliminary safety test on human LCK kinase; assay type: biochemical
Procedure: as §1

[5] = AM_Perm (artificial membrane permeability); assay type: in vitro ADME
[6] = ChromlogD (lipophilicity)
[7] = WT PfPKG (μM), recombinant WT PfPKG

Chain of AuroraB (Q96GD4 whole entry): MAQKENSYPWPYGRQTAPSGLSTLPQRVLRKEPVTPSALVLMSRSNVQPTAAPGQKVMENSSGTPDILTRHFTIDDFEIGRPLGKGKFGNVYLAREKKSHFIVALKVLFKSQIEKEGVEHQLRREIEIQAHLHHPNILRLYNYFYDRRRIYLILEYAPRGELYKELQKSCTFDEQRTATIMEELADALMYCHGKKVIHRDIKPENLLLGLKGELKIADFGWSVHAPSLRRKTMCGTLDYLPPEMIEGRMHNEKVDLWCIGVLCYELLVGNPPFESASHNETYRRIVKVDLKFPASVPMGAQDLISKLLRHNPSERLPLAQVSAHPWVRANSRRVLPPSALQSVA
T1 sequence (Q8I719 whole entry): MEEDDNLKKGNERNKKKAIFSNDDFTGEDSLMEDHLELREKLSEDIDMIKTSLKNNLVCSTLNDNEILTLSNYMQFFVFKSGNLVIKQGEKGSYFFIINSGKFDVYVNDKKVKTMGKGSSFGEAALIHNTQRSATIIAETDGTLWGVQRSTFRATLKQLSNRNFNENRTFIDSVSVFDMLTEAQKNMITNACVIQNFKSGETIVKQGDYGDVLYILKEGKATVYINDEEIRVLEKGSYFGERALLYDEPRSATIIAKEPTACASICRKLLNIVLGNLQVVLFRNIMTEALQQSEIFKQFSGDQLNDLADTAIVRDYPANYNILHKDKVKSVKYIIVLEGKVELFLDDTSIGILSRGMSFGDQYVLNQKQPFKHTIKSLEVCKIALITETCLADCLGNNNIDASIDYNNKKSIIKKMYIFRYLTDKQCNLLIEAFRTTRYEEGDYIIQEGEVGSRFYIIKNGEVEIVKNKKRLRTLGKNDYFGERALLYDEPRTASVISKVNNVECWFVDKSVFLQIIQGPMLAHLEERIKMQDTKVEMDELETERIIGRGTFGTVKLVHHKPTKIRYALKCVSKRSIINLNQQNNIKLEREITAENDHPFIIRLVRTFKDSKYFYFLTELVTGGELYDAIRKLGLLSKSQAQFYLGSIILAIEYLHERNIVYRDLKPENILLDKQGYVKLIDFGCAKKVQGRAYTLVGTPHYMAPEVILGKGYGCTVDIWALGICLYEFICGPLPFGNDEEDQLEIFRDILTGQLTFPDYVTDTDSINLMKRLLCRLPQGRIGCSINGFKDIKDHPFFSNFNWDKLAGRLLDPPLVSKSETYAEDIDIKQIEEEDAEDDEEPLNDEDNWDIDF
Chain of LCK (P06239 whole entry): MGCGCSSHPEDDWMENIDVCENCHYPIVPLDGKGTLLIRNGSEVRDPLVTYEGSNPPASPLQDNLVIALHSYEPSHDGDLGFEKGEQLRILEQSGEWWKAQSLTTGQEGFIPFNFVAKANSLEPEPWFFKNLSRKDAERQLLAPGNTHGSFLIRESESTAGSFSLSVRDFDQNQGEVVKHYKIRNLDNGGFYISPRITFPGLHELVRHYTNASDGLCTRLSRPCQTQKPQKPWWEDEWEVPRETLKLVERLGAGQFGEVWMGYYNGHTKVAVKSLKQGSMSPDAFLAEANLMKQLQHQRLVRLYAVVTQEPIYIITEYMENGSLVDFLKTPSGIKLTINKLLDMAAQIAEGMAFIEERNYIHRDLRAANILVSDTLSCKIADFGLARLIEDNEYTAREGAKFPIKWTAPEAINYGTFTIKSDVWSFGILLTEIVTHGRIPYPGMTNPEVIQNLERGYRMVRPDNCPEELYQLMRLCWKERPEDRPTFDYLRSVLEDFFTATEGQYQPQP

CCn1cc(-c2ccncn2)c(-c2cccc(NS(=O)(=O)c3cc(F)ccc3F)c2)n1 [Compound 2]
IC50 [1, 7]: 0.041 µM
PFI [2]: 8.0
IC50 [3]: > 31.6 µM
IC50 [4]: 7.9 µM
AM Perm [5]: 50.1 ×10⁻⁶ cm/s
chromatographic logD [6]: 4

Cc1ccc(S(C)(=O)=O)cc1Nc1nccc(-c2sc(CC(N)=O)nc2-c2ccccc2)n1 [Compound 3]
IC50 [1, 7]: 0.013 µM
PFI [2]: 7.3
IC50 [3]: > 31.6 µM
IC50 [4]: 0.251 µM
AM Perm [5]: 36.7 ×10⁻⁶ cm/s
chromatographic logD [6]: 3.3

CC(C)(CN)c1cc(-c2ccc(Cl)c(O)c2)c(-c2ccncc2)o1 [Compound 4]
IC50 ([1]; IC50 (WT PfPKG activity), Figure 3, most scored compound of each cluster and singletons): 0.002 µM
IC50 [1, 7]: 0.0017 µM
PFI [2]: 6.1
IC50 [3]: > 31.6 µM
IC50 [4]: 0.126 µM
AM Perm [5]: 53.1 ×10⁻⁶ cm/s
chromatographic logD [6]: 3.1

CCn1c(-c2nonc2N)nc2c(-c3ccccc3)ncc(CN(C)C3CCN(C)CC3)c21 [Compound 5]
IC50 [1, 7]: 0.039 µM
PFI [2]: 7.7
IC50 [3]: 12.6 µM
IC50 [4]: 12.6 µM
AM Perm [5]: 22.9 ×10⁻⁶ cm/s
chromatographic logD [6]: 3.7

CNS(=O)(=O)c1cccc(Nc2ccnc(Nc3cccc(S(=O)(=O)NC)c3)n2)c1 [Compound 6]
IC50 [1, 7]: 0.07 µM
PFI [2]: 6.4
IC50 [3]: 0.0631 µM
IC50 [4]: 2 µM
AM Perm [5]: 12.7 ×10⁻⁶ cm/s
chromatographic logD [6]: 3.4

COc1ccc(-c2c(-c3cccc(C(=O)N4CCN(C)CC4)c3)oc3ncnc(N)c23)cc1 [Compound 7]
IC50 [1, 7]: 0.01 µM
PFI [2]: 6.6
IC50 [3]: 3.2 µM
IC50 [4]: 0.4 µM
AM Perm [5]: 32.4 ×10⁻⁶ cm/s
chromatographic logD [6]: 2.6

COc1ccc(CCNC(=O)CSc2ncnc3[nH]ncc23)cc1OC [Compound 8]
IC50 [1, 7]: 0.104 µM
PFI [2]: 5.3
IC50 [3]: > 31.6 µM
IC50 [4]: > 31.6 µM
AM Perm [5]: 7 ×10⁻⁶ cm/s
chromatographic logD [6]: 2.3

COc1cccc(Nc2nc(-c3ccncc3)cc(N3CCN(C)CC3)n2)c1 [Compound 9]
IC50 [1, 7]: 0.027 µM
PFI [2]: 6.6
IC50 [3]: > 31.6 µM
IC50 [4]: > 31.6 µM
AM Perm [5]: 59.9 ×10⁻⁶ cm/s
chromatographic logD [6]: 3.6

COc1cc(CS(C)(=O)=O)ccc1Nc1nc(Nc2cc(F)ccc2C(N)=O)c2cc[nH]c2n1 [Compound 10]
IC50 [1, 7]: 0.05 µM
PFI [2]: 7.3
IC50 [3]: > 31.6 µM
IC50 [4]: > 31.6 µM
AM Perm [5]: 7.7 ×10⁻⁶ cm/s
chromatographic logD [6]: 3.3

O=C(N[C@@H](CO)c1ccccc1)c1ccc2cncc(-c3cn[nH]c3)c2n1 [Compound 11]
IC50 [1, 7]: 0.094 µM
PFI [2]: 5.9
IC50 [3]: 0.2 µM
IC50 [4]: 1 µM
AM Perm [5]: 8.6 ×10⁻⁶ cm/s
chromatographic logD [6]: 1.9

NCCNCc1ccc(-c2cc3ccncc3cc2OC2CCNCC2)s1 [Compound 12]
IC50 [1, 7]: 0.324 µM
PFI [2]: 2.6
IC50 [3]: 10 µM
IC50 [4]: 4 µM
AM Perm [5]: 1.2 ×10⁻⁶ cm/s
chromatographic logD [6]: -0.36

CNCCOc1cnc(-c2ccoc2C)c(-c2ccc3cnccc3c2)c1 [Compound 13]
IC50 [1, 7]: 0.007 µM
PFI [2]: 6.1
IC50 [3]: > 31.6 µM
IC50 [4]: 1.3 µM
AM Perm [5]: 43.1 ×10⁻⁶ cm/s
chromatographic logD [6]: 2.1

O=C(c1cccc(OCc2cccnc2)c1)N1CCc2sccc2C1CN1CCCCC1 (stereo not shown) [Compound 14]
IC50 [1, 7]: 0.036 µM
PFI [2]: 6.9
IC50 [3]: > 31.6 µM
IC50 [4]: > 31.6 µM
AM Perm [5]: 55.1 ×10⁻⁶ cm/s
chromatographic logD [6]: 3.9

Nc1ccc2c(-c3ccncc3)c(-c3ccc(Cl)c(O)c3)[nH]c2n1 [Compound 15]
IC50 [1, 7]: 0.022 µM
PFI [2]: 6.1
IC50 [3]: 4 µM
IC50 [4]: 5 µM
AM Perm [5]: 11 ×10⁻⁶ cm/s
chromatographic logD [6]: 2.1

Nc1nc(Nc2cccc3cnccc23)nn1C(=O)C1CCCCC1 [Compound 16]
IC50 [1, 7]: 0.09 µM
PFI [2]: 7.6
IC50 [3]: 4 µM
IC50 [4]: > 31.6 µM
AM Perm [5]: 33.9 ×10⁻⁶ cm/s
chromatographic logD [6]: 4.6
